Measurements from ChEMBL document CHEMBL1148144, “Horiolide, a novel norditerpenoid from Indian ocean soft coral of the genus Sinularia” (J Nat Prod, 2002).
Activity calls are given as the source filed them.

Key:
Assay type in all cases: functional, organism-based
Escherichia coli = experiment: Antibacterial activity against Escherichia coli
Staphylococcus aureus = experiment: Antibacterial activity against Staphylococcus aureus
Bacillus subtilis = experiment: Antibacterial activity against Bacillus subtilis
Rhizomucor miehei = experiment: Antifungal activity against Mucor miehei
Chlorella vulgaris = experiment: Antialgal activity against Chlorella vulgaris
Chlorella sorokiniana = experiment: Antialgal activity against Chlorella sorokiniana
Chlorella salina = experiment: Antialgal activity against Chlorella salina

Measured: Activity

C=C(C)[C@@H]1CC(=O)[C@H]2[C@H](C1)[C@@H]1C(=O)O[C@H]3[C@@H]1CC(=O)[C@H]2[C@H]3C(C)=O
inactive: all assays above
